# Laboratory results taken from PubChem BioAssay AID330 (DTP/NCI, 2004).
# Where “and” joins values, the source holds several entries; their conditions need not be identical. Equal values may be shown once. Toxic doses and inconclusive results are not listed.
# System: P388 leukemia ip, CD2F1 mice, survival T/C
# Test: NCI In Vivo Anticancer Drug Screen. Data for tumor model P388 Leukemia (intraperitoneal) in CD2F1 (CDF1) mice
# Conditions: endpoint: median survival time, higher = longer survival
# How it was run: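 Mice carrying the transplanted tumor received test compound or vehicle. Survival was recorded in each group, and the value is the treated-group measurement divided by that of the vehicle-treated control group.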
# [1] = dose: 50.0 mg/kg/injection, schedule: Q01DX009 (ip), vehicle: Klucel (hydroxypropylcellulose) (HPC)
# [2] = dose: 100.0 mg/kg/injection, schedule: Q01DX009 (ip), vehicle: Klucel (hydroxypropylcellulose) (HPC)
# [3] = dose: 200.0 mg/kg/injection, schedule: Q01DX009 (ip), vehicle: Klucel (hydroxypropylcellulose) (HPC)
# [4] = dose: 50.0 mg/kg/injection, schedule: Q01DX005 (ip), vehicle: saline with Tween-80
# [5] = dose: 100.0 mg/kg/injection, schedule: Q01DX005 (ip), vehicle: saline with Tween-80
# [6] = dose: 50.0 mg/kg/injection, schedule: Q01DX005 (ip), vehicle: Klucel (hydroxypropylcellulose) (HPC)
# [7] = dose: 100.0 mg/kg/injection, schedule: Q01DX005 (ip), vehicle: Klucel (hydroxypropylcellulose) (HPC)
# [8] = dose: 12.5 mg/kg/injection, schedule: Q01DX009 (ip), vehicle: Klucel (hydroxypropylcellulose) (HPC)
# [9] = dose: 25.0 mg/kg/injection, schedule: Q01DX005 (ip), vehicle: saline with Tween-80
# [10] = dose: 25.0 mg/kg/injection, schedule: Q01DX009 (ip), vehicle: saline with Tween-80
# [11] = dose: 50.0 mg/kg/injection, schedule: Q01DX009 (ip), vehicle: saline with Tween-80
# [12] = dose: 100.0 mg/kg/injection, schedule: Q01DX009 (ip), vehicle: saline with Tween-80
# [13] = dose: 200.0 mg/kg/injection, schedule: Q01DX009 (ip), vehicle: saline with Tween-80
# [14] = dose: 60.0 mg/kg/injection, schedule: Q01DX005 (ip), vehicle: Klucel (hydroxypropylcellulose) (HPC)
# [15] = dose: 120.0 mg/kg/injection, schedule: Q01DX005 (ip), vehicle: Klucel (hydroxypropylcellulose) (HPC)
# [16] = dose: 240.0 mg/kg/injection, schedule: Q01DX005 (ip), vehicle: Klucel (hydroxypropylcellulose) (HPC)
# [17] = dose: 50.0 mg/kg/injection, schedule: Q01DX005 (ip), vehicle: saline
# [18] = dose: 100.0 mg/kg/injection, schedule: Q04DX002 (ip), vehicle: saline
# [19] = dose: 200.0 mg/kg/injection, schedule: Q04DX002 (ip), vehicle: saline
compound,measurement,setting,value
CS(=O)(=O)/C=C/c1cccc(O)c1,T/C,[1],97 % of control
same,T/C,[2],96 % of control
same,T/C,[3],89 % of control
CCc1nc(-c2ccccc2)nc2c1nc(-c1ccccc1)n2Nc1ccccc1,T/C,[4],90 % of control
same,T/C,[5],96 % of control
same,T/C,"dose: 200.0 mg/kg/injection, schedule: Q01DX005 (ip), vehicle: saline with Tween-80",91 % of control
COC1=C2CCC3c4cc(OC)c(OC)cc4CC[N+]3=C2CC1 (stereo not given),T/C,"dose: 25.0 mg/kg/injection, schedule: Q01DX005 (ip), vehicle: Klucel (hydroxypropylcellulose) (HPC)",97 % of control
same,T/C,[6],99 % of control
same,T/C,[7],113 % of control
CN(C)c1ccc2c(c1)Sc1cc(N(C)C)ccc1N2C(=O)c1ccccc1,T/C,[8],105 % of control
same,T/C,"dose: 25.0 mg/kg/injection, schedule: Q01DX009 (ip), vehicle: Klucel (hydroxypropylcellulose) (HPC)",103 % of control
same,T/C,[1],102 % of control
same,T/C,[2],98 % of control
Cc1cc2c(cc1NCc1ccccc1)C(C)C(=O)CCC(=O)N2Cc1ccccc1 (stereo not given),T/C,"dose: 12.5 mg/kg/injection, schedule: Q01DX005 (ip), vehicle: saline with Tween-80",101 % of control
same,T/C,[9],99 % of control
same,T/C,[4],90 % of control and 94 % of control
Clc1ccc(C2NCCNCc3ccccc32)cc1 (stereo not given),T/C,[10],101 % of control
same,T/C,[11],107 % of control
same,T/C,[12],98 % of control and 115 % of control
C/C(Cl)=C\c1nc2ccccc2nc1Cl,T/C,"dose: 100.0 mg/kg/injection, schedule: Q01DX001 (ip), vehicle: Klucel (hydroxypropylcellulose) (HPC)",100 % of control
same,T/C,"dose: 200.0 mg/kg/injection, schedule: Q01DX001 (ip), vehicle: Klucel (hydroxypropylcellulose) (HPC)",92 % of control
same,T/C,"dose: 400.0 mg/kg/injection, schedule: Q01DX001 (ip), vehicle: Klucel (hydroxypropylcellulose) (HPC)",92 % of control
CSc1cccc(NC(=O)OC2CCCCCCCCCCC2)c1,T/C,[11],89 % of control
same,T/C,[12],89 % of control
same,T/C,[13],92 % of control
Cc1ccc(C#N)s1,T/C,"dose: 3.12 mg/kg/injection, schedule: Q01DX009 (ip), vehicle: saline with Tween-80",104 % of control
same,T/C,"dose: 6.25 mg/kg/injection, schedule: Q01DX009 (ip), vehicle: saline with Tween-80",103 % of control
same,T/C,"dose: 12.5 mg/kg/injection, schedule: Q01DX009 (ip), vehicle: saline with Tween-80",102 % of control
same,T/C,[10],95 % of control
COc1ccc2c(c1OC)C(CC(C)=O)N1CCc3cc4c(cc3C1C2=O)OCO4 (stereo not given),T/C,[14],100 % of control
same,T/C,[15],92 % of control
same,T/C,[16],88 % of control
CCC(C)N(CCNc1cc(OC)cc2cccnc12)CC(C)C (stereo not given),T/C,"dose: 12.5 mg/kg/injection, schedule: Q01DX005 (ip), vehicle: saline",104 % of control
same,T/C,"dose: 25.0 mg/kg/injection, schedule: Q01DX005 (ip), vehicle: saline",104 % of control
same,T/C,[17],101 % of control and 95 % of control
Cc1nc(C)c(Cl)c(Cc2ncnc3ccccc23)n1,T/C,[9],106 % of control
same,T/C,[4],96 % of control
same,T/C,[5],102 % of control
NNC(N)=NC1CCCCC1,T/C,[6],95 % of control
same,T/C,[7],97 % of control
CCC[P+](C)(CCC#N)c1ccccc1 (stereo not given),T/C,[8],108 % of control
Cc1cc(C)c2c(=O)c3c(oc2c1)O[C@@](C)(CO)C[C@@H]3c1ccccc1,T/C,"dose: 60.0 mg/kg/injection, schedule: Q01DX005 (ip), vehicle: saline with Tween-80",101 % of control
same,T/C,"dose: 120.0 mg/kg/injection, schedule: Q01DX005 (ip), vehicle: saline with Tween-80",98 % of control
same,T/C,"dose: 240.0 mg/kg/injection, schedule: Q01DX005 (ip), vehicle: saline with Tween-80",106 % of control
NCCSc1nc(-c2ccccc2)c(-c2ccccc2)o1,T/C,[1],100 % of control
same,T/C,[2],100 % of control
same,T/C,[3],101 % of control
COc1ccc2c(c1)C(=O)CC(COS(=O)(=O)c1ccc(C)cc1)C2 (stereo not given),T/C,[11],107 % of control
same,T/C,[12],101 % of control
same,T/C,[13],99 % of control
O=C1C(=O)N(c2cccc(Cl)c2)C(=O)N1Cc1ccccc1,T/C,[1],98 % of control
same,T/C,[2],104 % of control
same,T/C,[3],104 % of control
CC(=O)C1=C(O)C2(O)C(=O)c3c(c(C)c4ccc(C)c(O)c4c3O)CC2C(N)C1=O (stereo not given),T/C,"dose: 7.5 mg/kg/injection, schedule: Q01DX009 (ip), vehicle: saline + alcohol",103 % of control and 107 % of control and 120 % of control
same,T/C,"dose: 15.0 mg/kg/injection, schedule: Q01DX009 (ip), vehicle: saline + alcohol",103 % of control
same,T/C,"dose: 30.0 mg/kg/injection, schedule: Q01DX009 (ip), vehicle: saline + alcohol",119 % of control
same,T/C,"dose: 50.0 mg/kg/injection, schedule: Q04DX003 (ip), vehicle: saline with Tween-80",111 % of control
same,T/C,"dose: 100.0 mg/kg/injection, schedule: Q04DX003 (ip), vehicle: saline with Tween-80",111 % of control
Cc1ccc2c(c1)C(C)(C)C(O)CC2(C)C (stereo not given),T/C,[6],98 % of control
same,T/C,[7],106 % of control
same,T/C,"dose: 200.0 mg/kg/injection, schedule: Q01DX005 (ip), vehicle: Klucel (hydroxypropylcellulose) (HPC)",109 % of control
CC(NC(=O)c1ccc(Cl)cc1Cl)c1ccccc1 (stereo not given),T/C,"dose: 50.0 mg/kg/injection, schedule: Q01DX001 (ip), vehicle: other",98 % of control
same,T/C,"dose: 100.0 mg/kg/injection, schedule: Q01DX001 (ip), vehicle: other",97 % of control
same,T/C,"dose: 200.0 mg/kg/injection, schedule: Q01DX001 (ip), vehicle: other",96 % of control
same,T/C,"dose: 400.0 mg/kg/injection, schedule: Q01DX001 (ip), vehicle: other",94 % of control
CC(NC(=O)CN(C)C(=O)OCc1ccccc1)C(=O)O (stereo not given),T/C,[17],102 % of control
same,T/C,"dose: 100.0 mg/kg/injection, schedule: Q01DX005 (ip), vehicle: saline",96 % of control
same,T/C,"dose: 200.0 mg/kg/injection, schedule: Q01DX005 (ip), vehicle: saline",100 % of control
COc1cc(/C=C/c2cc(OC)c(OC)c(OC)c2)oc(=O)c1,T/C,[1],98 % of control
same,T/C,[2],104 % of control
same,T/C,[3],99 % of control
CN(C)N=Nc1cn[nH]c1C(N)=O,T/C,"dose: 50.0 mg/kg/injection, schedule: Q04DX003 (ip), vehicle: Klucel (hydroxypropylcellulose) (HPC)",109 % of control
same,T/C,"dose: 200.0 mg/kg/injection, schedule: Q04DX003 (ip), vehicle: Klucel (hydroxypropylcellulose) (HPC)",161 % of control and 163 % of control
c1ccc(CCC(Cc2cccnc2)c2ccccn2)nc1 (stereo not given),T/C,[18],95 % of control
same,T/C,[19],104 % of control
O=C1CN(c2ccccc2)C(=O)CN1Nc1ccccc1,T/C,[11],93 % of control
same,T/C,[12],93 % of control
N#Cc1c2ccc(N)cc2nc2cc(N)ccc12,T/C,[14],100 % of control
same,T/C,[15],105 % of control
same,T/C,[16],118 % of control
O=C1NN=C2CCCCCCCCCCC12Cl (stereo not given),T/C,[11],108 % of control
same,T/C,[12],106 % of control
same,T/C,[13],106 % of control
COc1ccc(CSC(=S)Nc2ccccc2C(F)(F)F)cc1,T/C,"dose: 50.0 mg/kg/injection, schedule: Q01DX009 (ip), vehicle: suspension in saline",93 % of control
same,T/C,"dose: 100.0 mg/kg/injection, schedule: Q01DX009 (ip), vehicle: suspension in saline",91 % of control
same,T/C,"dose: 200.0 mg/kg/injection, schedule: Q01DX009 (ip), vehicle: suspension in saline",92 % of control
CCCCCCCCCCCCS(=O)(=O)CC(Br)C(=O)c1ccco1 (stereo not given),T/C,[18],100 % of control
same,T/C,[19],100 % of control
same,T/C,"dose: 400.0 mg/kg/injection, schedule: Q04DX002 (ip), vehicle: saline",100 % of control
C/C=C/C=C\C=C/C(O)CC(OP(=O)(O)O)C(C)(O)/C=C/C1CC=CC(=O)O1 (stereo not given),T/C,"dose: 0.75 mg/kg/injection, schedule: Q01DX005 (ip), vehicle: water",116 % of control
same,T/C,"dose: 1.5 mg/kg/injection, schedule: Q01DX005 (ip), vehicle: water",119 % of control
same,T/C,"dose: 6.25 mg/kg/injection, schedule: Q01DX005 (ip), vehicle: water",183 % of control
O=C1c2ccccc2COC1c1ccccc1 (stereo not given),T/C,"dose: 50.0 mg/kg/injection, schedule: Q01DX009 (ip), vehicle: saline",108 % of control
same,T/C,"dose: 100.0 mg/kg/injection, schedule: Q01DX009 (ip), vehicle: saline",111 % of control
same,T/C,"dose: 200.0 mg/kg/injection, schedule: Q01DX009 (ip), vehicle: saline",118 % of control
